# In patent publication US12295937B2, “Psychoactive medicines and their use for treating psychiatric and neurological conditions and disorders” (Transcend Therapeutics, Inc., priority 2021, dated 2025):
# Legend:
# 5HT2A receptor = molecular target: T1, 5HT2A receptor (Homo sapiens, UniProt P28223); assay: GPCRmax screen, agonist mode, 5HT2A; format: cell-based; conditions: 1 or 10 mM
# T1 construct: host or cells: PathHunter cell lines
# [1] = Mouse head-twitch response (HTR) test; format: in vivo; conditions: i.p., HTR measured for 10 minutes
# Description: Head twitch response (HTR) was evaluated using C57BL/6J mice (ages 7-10 weeks). Mice were ear tagged at least three days after arrival to the animal facility and allowed to rest for at least three days before behavioral testing. Small magnets (SuperMagnetMan—N45 magnet 3 mm diameter, 0.5 mm thickness) were glued to car tags (Stoelting—La Pias Aluminum Ear Tags) at least two days before mice were car tagged. The experimental setup was adapted from Gonzales-Macso (de la Fuente Revenga et al., 2019) and Kwan (Jefferson et al., 2022; Savalia et al., 2021), including experimental apparatus and MATLAB code for analysis.
# Doses were randomly assigned, and age-matched controls were injected with vehicle and randomly interspersed with drug conditions. At least three animals per sex were used for each drug dose and condition. If animals were used in multiple HTR experiments, experimental sessions took place at least one week apart. Two animals were run at a time. Immediately after i.p. injection of psychedelic or entactogen drug, animals were placed in separate plastic boxes within a larger chamber (Home Depot—28 in. W×32 in. H×21.5 in. D), and HTR was measured for 10 minutes. A small lamp was placed in the back of the larger chamber, and a high-speed camera (Basler-Aca 1920-155 μm) was suspended from the ceiling to record video of the animals in the plastic boxes. […]
# [2] = system: gene expression in amygdala, frontal cortex, hippocampus; assay: RNA-sequencing of rat brain areas after a single dose; format: in vivo; conditions: for Genes differentially regulated vs. vehicle: 10 mg/kg IP, 8 hours
# 5HT2C receptor = molecular target: T2, 5HT2C receptor (Homo sapiens, UniProt P28335); assay: GPCRmax screen, agonist mode, 5HT2C; format: cell-based; conditions: 1 or 10 mM
# T2 construct: host or cells: PathHunter cell lines
# [3] = Methylone PTSD case series with long-term follow-up (CGI-I, safety); format: in vivo, human
# Text: The patients were not given structured psychotherapy in conjunction with methylone treatment, which differs from recent studies of MDMA that emphasize the importance of a manualized psychedelic-assisted psychotherapy model.
# No protected health information was disclosed, and no consent was obtained from patients for use of their archival data. Case narratives were systematically compiled from data collected as part of routine clinical work. Diagnoses were confirmed by an experienced clinician using semi-structured interviews. Baseline symptom severity was evaluated using the Clinical Global Impressions Scale-Severity (CGI-S). Symptom improvement was evaluated using the Clinical Global Impressions Scale-Improvement (CGI-I) following dosing. […] Because these case narratives were examined retrospectively from routine clinical care records, and not gathered prospectively in a research study, more specific validated rating scales for assessing PTSD symptoms were not available. Additionally, follow-up varied, with the length of follow-up ranging from one week (Case 2) to 15 years (Case 16).
# Dosing summary: Methylone was administered orally. Other medications were not changed during methylone treatment. […] In several cases, treatment was continued, and, in some cases, the dose was further escalated in later sessions (see Table 5). Booster doses were included for 19 patients in one or more of the sessions. Starting doses were between 100 and 270 mg, and these as well as booster doses were selected based on clinical judgement.
# 168 GPCRs [4] = molecular target: 168 GPCRs (Homo sapiens, UniProt P30874); assay: β-arrestin GPCR screen (PathHunter / GPCRmax), antagonist mode; conditions: SSTR2; Antagonist; 1 uM
# 168 GPCRs [5] = molecular target: 168 GPCRs (Homo sapiens, UniProt P32248); assay: as above; conditions: CCR7, Antagonist mode, 10 uM
# 168 GPCRs [6] = molecular target: 168 GPCRs (Homo sapiens, UniProt Q16581); assay: as above; conditions: C3AR1, Antagonist mode, 10 uM
# 168 GPCRs [7] = molecular target: 168 GPCRs (Homo sapiens, UniProt P51685); assay: as above; conditions: CCR8, Antagonist mode, 10 uM
# 168 GPCRs [8] = molecular target: 168 GPCRs (Homo sapiens, UniProt P43088); assay: as above; conditions: PTGFR, Antagonist mode, 10 uM
# 168 GPCRs [9] = molecular target: 168 GPCRs (Homo sapiens, UniProt O43603); assay: as above; conditions: GALR2, Antagonist mode, 10 uM
# 168 GPCRs [10] = molecular target: 168 GPCRs (Homo sapiens, UniProt P49190); assay: as above
# 168 GPCRs [11] = molecular target: 168 GPCRs (Homo sapiens, UniProt P30556); assay: as above
# 168 GPCRs [12] = molecular target: 168 GPCRs (Homo sapiens, UniProt Q16602); assay: as above; conditions: CALCRL-RAMP2, Antagonist mode, 10 uM
# [13] = system: myelin basic protein (MBP); assay: Myelin basic protein immunohistochemistry in amygdala; format: in vivo, rat; conditions: 10 mg/kg IP, 24 h
# Description: Immunohistochemistry: The in-life portion of the study was conducted at WuXi Apptec (Cranbury, NJ). Sectioning and staining of brains took place at Neuroscience Associates (NSA, Knoxville, TN). […] Brains were post-fixed in PFA before shipment to NSA for processing and staining. Hemisected brains were mounted, sectioned and stained using standard protocols with myelin-basic protein primary antibody (MBP SMI-99, 1:5000, Biolegend, San Diego, CA) and anti-mouse biotinylated secondary antibody (BA-2001, Vector Laboratories, Newark, CA). Slides were imaged using a Huron Digital Pathology TissueScope LE120 whole slide scanning system. 20× objective was used with a 0.4 μm/pixel resolution.
# Sequence of 168 GPCRs (Homo sapiens, UniProt P49190) (P49190 25-550): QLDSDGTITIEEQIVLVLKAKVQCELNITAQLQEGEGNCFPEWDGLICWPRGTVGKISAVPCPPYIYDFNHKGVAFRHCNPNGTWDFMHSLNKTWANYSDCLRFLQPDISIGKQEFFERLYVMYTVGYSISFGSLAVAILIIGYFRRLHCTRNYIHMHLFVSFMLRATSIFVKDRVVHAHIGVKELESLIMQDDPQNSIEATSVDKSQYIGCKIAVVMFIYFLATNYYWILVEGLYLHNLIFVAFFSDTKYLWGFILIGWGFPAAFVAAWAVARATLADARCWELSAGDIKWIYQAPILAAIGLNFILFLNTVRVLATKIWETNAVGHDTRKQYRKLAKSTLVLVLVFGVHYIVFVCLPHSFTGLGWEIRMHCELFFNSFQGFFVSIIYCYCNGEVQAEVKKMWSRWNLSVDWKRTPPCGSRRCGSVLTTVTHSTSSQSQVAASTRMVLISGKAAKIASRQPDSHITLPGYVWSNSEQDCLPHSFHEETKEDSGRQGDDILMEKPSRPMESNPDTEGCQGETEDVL
# Sequence of 168 GPCRs (Homo sapiens, UniProt P30556) (P30556 whole entry): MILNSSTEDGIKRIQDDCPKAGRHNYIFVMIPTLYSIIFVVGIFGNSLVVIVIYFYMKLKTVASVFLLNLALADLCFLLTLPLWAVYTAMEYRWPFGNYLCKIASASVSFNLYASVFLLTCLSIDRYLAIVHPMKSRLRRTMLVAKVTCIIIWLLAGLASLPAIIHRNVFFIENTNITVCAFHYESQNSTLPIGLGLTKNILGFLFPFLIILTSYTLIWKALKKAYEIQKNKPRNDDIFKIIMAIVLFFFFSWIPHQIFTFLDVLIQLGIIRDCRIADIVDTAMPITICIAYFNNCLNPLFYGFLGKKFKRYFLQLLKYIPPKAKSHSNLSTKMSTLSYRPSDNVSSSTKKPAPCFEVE
# Sequence of 168 GPCRs (Homo sapiens, UniProt O43603) (O43603 whole entry): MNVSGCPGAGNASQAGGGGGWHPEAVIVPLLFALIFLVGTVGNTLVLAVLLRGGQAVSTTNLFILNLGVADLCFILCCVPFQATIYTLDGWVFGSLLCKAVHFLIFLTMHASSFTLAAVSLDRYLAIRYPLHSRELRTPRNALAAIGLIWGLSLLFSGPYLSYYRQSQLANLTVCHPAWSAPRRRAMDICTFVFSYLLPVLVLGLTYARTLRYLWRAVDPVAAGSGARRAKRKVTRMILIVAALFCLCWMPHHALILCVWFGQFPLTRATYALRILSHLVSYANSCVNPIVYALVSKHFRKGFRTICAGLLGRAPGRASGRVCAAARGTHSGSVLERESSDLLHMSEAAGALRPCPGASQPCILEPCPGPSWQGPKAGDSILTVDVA
# Sequence of 168 GPCRs (Homo sapiens, UniProt P43088) (P43088 whole entry): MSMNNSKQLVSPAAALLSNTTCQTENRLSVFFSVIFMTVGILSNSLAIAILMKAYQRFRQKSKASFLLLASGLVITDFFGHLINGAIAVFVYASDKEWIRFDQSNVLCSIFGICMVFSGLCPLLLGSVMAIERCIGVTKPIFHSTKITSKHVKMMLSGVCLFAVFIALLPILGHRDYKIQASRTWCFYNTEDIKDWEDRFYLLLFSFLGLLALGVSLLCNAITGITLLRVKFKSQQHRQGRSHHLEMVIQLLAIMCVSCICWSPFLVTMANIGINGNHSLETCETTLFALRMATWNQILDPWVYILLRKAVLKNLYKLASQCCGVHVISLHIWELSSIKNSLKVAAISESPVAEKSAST
# Sequence of 168 GPCRs (Homo sapiens, UniProt P30874) (P30874 whole entry): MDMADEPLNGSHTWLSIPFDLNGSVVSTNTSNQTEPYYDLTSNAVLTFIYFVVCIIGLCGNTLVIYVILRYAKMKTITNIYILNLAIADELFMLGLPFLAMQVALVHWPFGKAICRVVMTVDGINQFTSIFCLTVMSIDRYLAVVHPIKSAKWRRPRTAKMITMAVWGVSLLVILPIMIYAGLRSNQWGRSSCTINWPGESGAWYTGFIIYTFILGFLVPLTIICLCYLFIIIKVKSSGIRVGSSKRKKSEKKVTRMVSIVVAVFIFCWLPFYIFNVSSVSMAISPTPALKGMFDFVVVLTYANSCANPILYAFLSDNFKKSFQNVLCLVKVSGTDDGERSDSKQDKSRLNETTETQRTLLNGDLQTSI
# Sequence of 168 GPCRs (Homo sapiens, UniProt Q16581) (Q16581 whole entry): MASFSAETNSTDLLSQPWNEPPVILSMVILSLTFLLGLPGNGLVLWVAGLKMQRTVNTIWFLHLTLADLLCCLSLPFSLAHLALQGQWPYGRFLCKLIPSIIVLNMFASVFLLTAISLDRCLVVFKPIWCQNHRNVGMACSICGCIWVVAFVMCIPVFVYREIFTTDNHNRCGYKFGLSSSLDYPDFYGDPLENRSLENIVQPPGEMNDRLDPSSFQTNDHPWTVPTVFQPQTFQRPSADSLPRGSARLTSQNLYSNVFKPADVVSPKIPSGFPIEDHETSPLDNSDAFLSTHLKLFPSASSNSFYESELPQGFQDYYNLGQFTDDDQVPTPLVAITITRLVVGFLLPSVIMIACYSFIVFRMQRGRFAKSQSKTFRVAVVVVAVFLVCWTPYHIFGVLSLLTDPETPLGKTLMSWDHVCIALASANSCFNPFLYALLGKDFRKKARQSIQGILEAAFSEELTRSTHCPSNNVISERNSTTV
# T2 sequence (P28335 33-458): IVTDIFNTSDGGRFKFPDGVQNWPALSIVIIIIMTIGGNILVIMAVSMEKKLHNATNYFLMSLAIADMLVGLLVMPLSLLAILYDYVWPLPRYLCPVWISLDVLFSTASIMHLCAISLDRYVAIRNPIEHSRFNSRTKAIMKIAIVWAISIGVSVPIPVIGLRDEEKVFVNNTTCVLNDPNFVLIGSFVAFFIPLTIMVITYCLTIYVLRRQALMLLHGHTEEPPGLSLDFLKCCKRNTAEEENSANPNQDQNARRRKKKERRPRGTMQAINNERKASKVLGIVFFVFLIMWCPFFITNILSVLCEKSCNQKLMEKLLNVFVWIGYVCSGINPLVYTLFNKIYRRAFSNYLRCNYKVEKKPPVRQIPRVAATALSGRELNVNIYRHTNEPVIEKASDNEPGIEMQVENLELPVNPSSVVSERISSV
# Sequence of 168 GPCRs (Homo sapiens, UniProt P32248) (P32248 25-378): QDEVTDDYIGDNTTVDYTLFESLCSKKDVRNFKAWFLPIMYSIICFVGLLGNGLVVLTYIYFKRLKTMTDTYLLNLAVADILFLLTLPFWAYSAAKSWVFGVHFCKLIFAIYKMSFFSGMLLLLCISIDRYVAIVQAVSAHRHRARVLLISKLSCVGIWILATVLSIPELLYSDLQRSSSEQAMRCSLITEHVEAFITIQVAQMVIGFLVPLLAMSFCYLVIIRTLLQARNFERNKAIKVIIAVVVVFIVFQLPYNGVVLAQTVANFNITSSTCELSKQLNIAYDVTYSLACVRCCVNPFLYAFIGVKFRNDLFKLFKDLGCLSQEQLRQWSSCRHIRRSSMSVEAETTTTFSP
# Sequence of 168 GPCRs (Homo sapiens, UniProt Q16602) (Q16602 23-461): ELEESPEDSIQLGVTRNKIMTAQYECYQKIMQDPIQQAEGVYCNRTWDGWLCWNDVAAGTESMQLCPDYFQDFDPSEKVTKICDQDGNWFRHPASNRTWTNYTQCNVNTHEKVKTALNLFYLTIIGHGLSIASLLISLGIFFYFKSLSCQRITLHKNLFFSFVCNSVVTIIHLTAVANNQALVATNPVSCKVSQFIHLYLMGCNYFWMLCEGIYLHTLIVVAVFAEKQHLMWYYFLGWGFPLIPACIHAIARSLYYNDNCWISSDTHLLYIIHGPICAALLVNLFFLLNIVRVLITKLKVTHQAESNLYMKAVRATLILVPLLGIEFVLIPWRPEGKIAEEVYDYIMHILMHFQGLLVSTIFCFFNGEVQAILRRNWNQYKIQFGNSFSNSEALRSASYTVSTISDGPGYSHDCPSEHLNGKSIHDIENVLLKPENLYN
# T1 sequence (P28223 whole entry): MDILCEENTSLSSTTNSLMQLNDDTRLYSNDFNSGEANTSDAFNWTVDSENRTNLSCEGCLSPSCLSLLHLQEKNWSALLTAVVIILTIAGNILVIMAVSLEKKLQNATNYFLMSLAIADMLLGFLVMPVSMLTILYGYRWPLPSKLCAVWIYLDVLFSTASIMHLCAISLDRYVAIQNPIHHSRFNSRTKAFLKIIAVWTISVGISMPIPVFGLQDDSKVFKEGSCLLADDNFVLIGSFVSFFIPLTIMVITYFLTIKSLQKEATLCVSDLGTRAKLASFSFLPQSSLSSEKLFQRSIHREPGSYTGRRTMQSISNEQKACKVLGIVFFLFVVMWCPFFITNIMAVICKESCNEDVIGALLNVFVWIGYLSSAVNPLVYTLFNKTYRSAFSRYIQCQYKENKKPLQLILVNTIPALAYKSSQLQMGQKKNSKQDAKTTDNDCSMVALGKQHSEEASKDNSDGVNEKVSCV
# Sequence of 168 GPCRs (Homo sapiens, UniProt P51685) (P51685 whole entry): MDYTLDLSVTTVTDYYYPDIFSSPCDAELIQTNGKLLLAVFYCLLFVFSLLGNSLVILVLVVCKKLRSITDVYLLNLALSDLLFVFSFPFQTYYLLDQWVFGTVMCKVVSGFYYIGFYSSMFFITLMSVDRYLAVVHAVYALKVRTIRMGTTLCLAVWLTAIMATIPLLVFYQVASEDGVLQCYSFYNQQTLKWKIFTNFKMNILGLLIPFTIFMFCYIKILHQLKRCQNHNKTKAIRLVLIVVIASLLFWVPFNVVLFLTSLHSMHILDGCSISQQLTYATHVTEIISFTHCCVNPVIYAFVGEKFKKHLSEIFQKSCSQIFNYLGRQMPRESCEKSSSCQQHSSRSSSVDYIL
smiles,measurement,setting,value
"CNC(C)C(=O)c1ccc2c(c1)OCO2 (centres unmarked) [Methylone, 3,4-methylenedioxy-N-methylcathinone]",Agonist % activity,5HT2A receptor,no agonist or antagonist activity
same,Head-twitch behaviors,[1],no effect on head-twitch behaviors at any dose tested
same,Genes regulated by methylone that are also regulated by MDMA,[2]; amygdala,87%
same,Genes differentially regulated vs. vehicle,"[2]; amygdala, >25% change, padj<0.1",121 genes
same,Genes regulated by both treatments,[2]; frontal cortex,154 genes
same,Genes significantly regulated,"[2]; frontal cortex, 10 mg/kg IP (Example 27)",480 genes
same,Genes differentially regulated vs. vehicle,[2]; frontal cortex,471 genes
same,Genes differentially regulated vs. vehicle,[2]; hippocampus,12 genes
same,Agonist % activity,5HT2C receptor,no agonist or antagonist activity
same,Adverse events noted,[3]; 21 PTSD patients,four adverse events were noted in three of the 21 patients
same,Patients much improved or very much improved per CGI-I,[3]; 21 PTSD patients,81%
same,Patients reporting a durable effect,[3]; of 17 patients with durability information,16
same,Patients achieving CGI-I 1 (very much improved),[3]; of 21 PTSD patients,9 patients
same,Patients achieving CGI-I 2 (much improved),[3]; of 21 PTSD patients,8 patients
same,Patients achieving a CGI-I of 1 or 2,[3]; of 21 PTSD patients,17 patients
same,Patients achieving CGI-I 1 or 2,[3]; patients with a single dose session (n=9),89%
same,Patients with initial improvement after the initial session,[3]; patients with multiple dosing sessions (n=12),83%
same,% Activity,168 GPCRs [4],−0.4%
same,% Activity,168 GPCRs [5],−3.4%
same,% Activity,168 GPCRs [6],0.3%
same,% Activity,168 GPCRs [7],−0.3%
same,% Activity,168 GPCRs [8],0%
same,% Activity,168 GPCRs [9],1.5%
same,% Activity,"168 GPCRs [10]; PTHR2, Antagonist mode, 10 uM",−0.2%
same,% Activity,"168 GPCRs [10]; PTHR2, Antagonist, 1 uM",−1%
same,% Activity,"168 GPCRs [11]; AGTR1, Antagonist mode, 10 uM",−1.4%
same,% Activity,"168 GPCRs [11]; AGTR1, Antagonist, 1 uM",3.3%
same,% Activity,168 GPCRs [12],7%
same,MBP in basolateral and central nuclei of the amygdala vs. vehicle,[13],significant reduction in MBP
